Assays:
[1] = target: Recombinant Human NF-Kappab-Inducing Kinase (NIK/MAP3K14) (Homo sapiens, UniProt Q99558); experiment: Inhibition of auto-phosphorylation of recombinant human NIK/MAP3K14 (AlphaScreen); assay type: biochemical; conditions: NIK/MAP3K14 auto-phosphorylation, 5 microM ATP, 1 nM enzyme, 2 h at 25° C.; average of values; read-out: Assay 1 IC50
Method in brief: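 GST-tagged NIK (1 nM) auto-phosphorylation with 5 µM ATP in Tris pH 7.5/MgCl2 buffer, 0.7% DMSO, 2 h at 25 °C. Phospho-IKK Ser176/180 antibody detected by AlphaScreen beads. Signal normalized to full-enzyme and no-ATP controls; IC50 from sigmoidal fit of % inhibition vs log concentration.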

[2] = system: p-IKKα levels in L363 (NIK translocated multiple myeloma) cells; experiment: Effect of compounds on p-IKKα levels in L363 cells (AlphaLISA SureFire Ultra); assay type: cell-based; conditions: Homo sapiens, L-363; L363 cells, BAFF stimulated, MG132, 6 h; average of values; read-out: Assay 2 IC50
Method in brief: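 L363 myeloma cells were BAFF-stimulated (250 ng/ml) overnight in DMEM/0.5% BSA, then exposed 6 h at 37° C to compound (11-point 1:3 series, 0.3% DMSO) with BAFF plus 10 uM MG132. p-IKKα (Ser 176/180) was read by AlphaLISA SureFire Ultra in lysates. IC50 came from sigmoidal fits normalized to stimulated and unstimulated controls.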

Chain of Recombinant Human NF-Kappab-Inducing Kinase (NIK/MAP3K14) (Q99558 whole entry): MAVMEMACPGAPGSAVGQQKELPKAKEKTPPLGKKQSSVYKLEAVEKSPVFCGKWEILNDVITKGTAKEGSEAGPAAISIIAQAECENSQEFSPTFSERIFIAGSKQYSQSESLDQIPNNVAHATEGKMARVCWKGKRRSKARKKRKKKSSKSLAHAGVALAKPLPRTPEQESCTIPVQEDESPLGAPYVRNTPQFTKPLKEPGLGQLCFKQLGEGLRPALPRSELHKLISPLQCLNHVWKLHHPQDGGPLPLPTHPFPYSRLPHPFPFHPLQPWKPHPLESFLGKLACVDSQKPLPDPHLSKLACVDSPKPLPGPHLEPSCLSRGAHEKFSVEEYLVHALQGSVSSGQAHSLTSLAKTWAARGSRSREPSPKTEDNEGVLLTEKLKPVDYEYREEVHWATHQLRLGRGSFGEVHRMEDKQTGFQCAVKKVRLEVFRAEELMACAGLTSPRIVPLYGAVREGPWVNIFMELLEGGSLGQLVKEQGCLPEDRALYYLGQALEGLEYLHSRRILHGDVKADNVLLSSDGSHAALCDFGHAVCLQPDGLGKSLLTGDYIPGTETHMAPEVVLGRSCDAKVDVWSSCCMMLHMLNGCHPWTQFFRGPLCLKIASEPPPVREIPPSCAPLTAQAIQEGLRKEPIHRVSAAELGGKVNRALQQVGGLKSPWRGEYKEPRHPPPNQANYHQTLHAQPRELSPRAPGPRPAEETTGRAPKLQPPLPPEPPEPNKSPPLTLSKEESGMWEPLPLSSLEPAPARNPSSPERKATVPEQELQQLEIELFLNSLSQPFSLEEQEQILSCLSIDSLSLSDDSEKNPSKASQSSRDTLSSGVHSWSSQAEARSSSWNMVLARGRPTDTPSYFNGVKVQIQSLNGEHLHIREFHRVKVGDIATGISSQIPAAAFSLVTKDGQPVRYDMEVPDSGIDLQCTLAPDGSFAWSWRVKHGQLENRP

Row | Compound | IC50 [1] | IC50 [2]
1 | CN1CC[C@@](O)(c2cn(-c3cccc(-c4cccc(C(N)=O)n4)c3)nn2)C1=O [Example 14, (R)-6-(3-(4-(3-Hydroxy-1-methyl-2-oxopyrrolidin-3-yl)-1H-1,2,3-triazol-1-yl)phenyl)picolinamide] | < 100 nM | > 501 nM
2 | Cc1ccc(-c2cc([C@]3(O)CCN(C)C3=O)on2)cc1-c1cccc(C(N)=O)n1 [Example 151, (R)-6-(5-(5-(3-Hydroxy-1-methyl-2-oxopyrrolidin-3-yl)isoxazol-3-yl)-2-methylphenyl)picolinamide] | > 501 nM | > 501 nM
3 | CN1CC[C@@](O)(c2cc(-c3cccc(-c4nc(C(N)=O)c5ccc(F)cc5n4)c3)on2)C1=O [Example 160, (R)-7-Fluoro-2-(3-(3-(3-hydroxy-1-methyl-2-oxopyrrolidin-3-yl)isoxazol-5-yl)phenyl)quinazoline-4-carboxamide] | < 100 nM | > 501 nM
4 | CN1CC[C@@](O)(c2cc(-c3cccc(-c4ccc5[nH]nc(N)c5n4)c3)no2)C1=O [Example 4, (R)-3-(3-(3-(3-Amino-1H-pyrazolo[4,3-b]pyridin-5-yl)phenyl)isoxazol-5-yl)-3-hydroxy-1-methylpyrrolidin-2-one] | < 100 nM | > 501 nM
5 | CN1CC[C@@](O)(c2cc(-c3cccc(-c4cccc(C(N)=O)n4)c3)[nH]n2)C1=O (single isomer, unassigned) [Example 31] | 100 to 500 nM | > 501 nM
6 | Cc1cc(N2CCC[C@H](c3cc([C@]4(O)CCN(C)C4=O)on3)C2)nc2c(N)ncnc12 (single isomer, unassigned) [Example 200] | < 100 nM | > 501 nM
7 | Cc1ccc(-c2cc([C@]3(O)CCN(C)C3=O)on2)cc1-c1nc2c(N)ncnc2s1 [Example 12, (R)-3-(3-(3-(7-Aminothiazolo[5,4-d]pyrimidin-2-yl)-4-methylphenyl)isoxazol-5-yl)-3-hydroxy-1-methylpyrrolidin-2-one] | < 100 nM | > 501 nM
8 | CN1CC[C@@](O)(c2cc(-c3cccc(-c4cccc5c(=O)[nH]ccc45)c3)no2)C1=O [Example 82, (R)-5-(3-(5-(3-Hydroxy-1-methyl-2-oxopyrrolidin-3-yl)isoxazol-3-yl)phenyl)isoquinolin-1 (2H)-one] | > 501 nM | > 501 nM
9 | CN1CC[C@@](O)(c2cc(-c3cccc(-c4nc(C(N)=O)cs4)c3)no2)C1=O [Example 204, (R)-2-(3-(5-(3-Hydroxy-1-methyl-2-oxopyrrolidin-3-yl)isoxazol-3-yl)phenyl)thiazole-4-carboxamide] | < 100 nM | > 501 nM
10 | CN1CC[C@@](O)(c2cc(-c3cccc(-c4ncc(N[C@@H]5CCOC5)c(C(N)=O)n4)c3)no2)C1=O [Example 129, 2-(3-(5-((R)-3-hydroxy-1-methyl-2-oxopyrrolidin-3-yl)isoxazol-3-yl)phenyl)-5-(((R)-tetrahydrofuran-3-yl)amino)pyrimidine-4-carboxamide] | < 100 nM | < 100 nM
11 | CN1CC[C@@](O)(c2cc(-c3cccc(-c4ccc5[nH]ncc5n4)c3)no2)C1=O [Example 228, (R)-3-(3-(3-(1H-Pyrazolo[4,3-b]pyridin-5-yl)phenyl)isoxazol-5-yl)-3-hydroxy-1-methylpyrrolidin-2-one] | 100 to 500 nM | > 501 nM
12 | CN1CC[C@@](O)(c2cc(-c3cccc(-c4cc(N[C@H]5CCOC5)cc(C(N)=O)n4)c3)no2)C1=O [Example 131, 6-(3-(5-((R)-3-Hydroxy-1-methyl-2-oxopyrrolidin-3-yl)isoxazol-3-yl)phenyl)-4-(((S)-tetrahydrofuran-3-yl)amino)picolinamide] | > 501 nM | > 501 nM
13 | CN1CC[C@@](O)(c2cc(-c3cccc(-c4ncc(Nc5cn[nH]c5)c(C(N)=O)n4)c3)no2)C1=O [Example 141, (R)-5-((1H-Pyrazol-4-yl)amino)-2-(3-(5-(3-hydroxy-1-methyl-2-oxopyrrolidin-3-yl)isoxazol-3-yl)phenyl)pyrimidine-4-carboxamide] | < 100 nM | < 100 nM
14 | CN1CC[C@@](O)(c2cc(-c3cccc(-c4nc(C(N)=O)c(CNC5CCCC5)s4)c3)no2)C1=O [Example 223, (R)-5-((Cyclopentylamino)methyl)-2-(3-(5-(3-hydroxy-1-methyl-2-oxopyrrolidin-3-yl)isoxazol-3-yl)phenyl)thiazole-4-carboxamide] | < 100 nM | > 501 nM
15 | CN1CC[C@@](O)(c2cc(-c3cccc(-c4cc(C(F)(F)F)cc(C(N)=O)n4)c3)no2)C1=O [Example 91, (R)-6-(3-(5-(3-Hydroxy-1-methyl-2-oxopyrrolidin-3-yl)isoxazol-3-yl)phenyl)-4-(trifluoromethyl)picolinamide] | < 100 nM | 100 to 500 nM
16 | CN1CC[C@@](O)(c2cc(-c3cccc(-n4cc(C(N)=O)cn4)n3)no2)C1=O [Example 194, (R)-1-(6-(5-(3-Hydroxy-1-methyl-2-oxopyrrolidin-3-yl)isoxazol-3-yl)pyridin-2-yl)-1H-pyrazole-4-carboxamide] | > 501 nM | > 501 nM
17 | CN1CC[C@@](O)(c2cc(-c3cccc(-c4ncc5ccnc(N)c5n4)c3)no2)C1=O [Example 10, (R)-3-(3-(3-(8-Aminopyrido[3,4-d]pyrimidin-2-yl)phenyl)isoxazol-5-yl)-3-hydroxy-1-methylpyrrolidin-2-one] | < 100 nM | > 501 nM
18 | Cc1cc(C(N)=O)nc(-c2cccc(-c3cc([C@]4(O)CCN(C)C4=O)on3)c2)c1 [Example 155, (R)-6-(3-(5-(3-Hydroxy-1-methyl-2-oxopyrrolidin-3-yl)isoxazol-3-yl)phenyl)-4-methylpicolinamide] | < 100 nM | 100 to 500 nM
19 | CN1CC[C@@](O)(c2cc(-c3cccc(-n4nc(C(N)=O)c5c4CCCC5)c3)no2)C1=O [Example 102, (R)-1-(3-(5-(3-Hydroxy-1-methyl-2-oxopyrrolidin-3-yl)isoxazol-3-yl)phenyl)-4,5,6,7-tetrahydro-1H-indazole-3-carboxamide] | < 100 nM | > 501 nM
20 | CCc1c[nH]c2ncnc(-c3cccc(-c4cc([C@]5(O)CCN(C)C5=O)on4)c3)c12 [Example 73, (R)-3-(3-(3-(5-Ethyl-7H-pyrrolo[2,3-d]pyrimidin-4-yl)phenyl)isoxazol-5-yl)-3-hydroxy-1-methylpyrrolidin-2-one] | > 501 nM | > 501 nM
21 | CN1CCC(O)(c2cc(-c3cccc(-n4nc(C(N)=O)c5ccccc54)c3)on2)C1=O (racemic) [Example 167, (R,S)-1-(3-(3-(3-Hydroxy-1-methyl-2-oxopyrrolidin-3-yl)isoxazol-5-yl)phenyl)-1H-indazole-3-carboxamide] | < 100 nM | 100 to 500 nM
22 | COc1cc(-c2cccc(-c3cc([C@]4(O)CCN(C)C4=O)on3)c2)cc2c1cnn2C [Example 76, (R)-3-Hydroxy-3-(3-(3-(4-methoxy-1-methyl-1H-indazol-6-yl)phenyl)isoxazol-5-yl)-1-methylpyrrolidin-2-one] | 100 to 500 nM | > 501 nM
23 | CN1CC[C@@](O)(c2cc(-c3cccc(-n4nc(C(N)=O)c5cc(C6CC6)ccc54)c3)no2)C1=O [Example 112, (R)-5-Cyclopropyl-1-(3-(5-(3-hydroxy-1-methyl-2-oxopyrrolidin-3-yl)isoxazol-3-yl)phenyl)-1H-indazole-3-carboxamide] | < 100 nM | 100 to 500 nM
24 | Cc1nc(N)c2nc(-c3cccc(-c4cc([C@]5(O)CCN(C)C5=O)no4)c3)ccc2n1 [Example 3, (R)-3-(5-(3-(4-Amino-2-methylpyrido[3,2-d]pyrimidin-6-yl)phenyl)isoxazol-3-yl)-3-hydroxy-1-methylpyrrolidin-2-one] | < 100 nM | > 501 nM
25 | CN1CC[C@@](O)(c2cc(-c3cccc(-c4cc(C5CC5)c(N)c(C(N)=O)n4)c3)no2)C1=O [Example 88, (R)-3-Amino-4-cyclopropyl-6-(3-(5-(3-hydroxy-1-methyl-2-oxopyrrolidin-3-yl)isoxazol-3-yl)phenyl)picolinamide] | < 100 nM | < 100 nM
26 | CN1CCC(O)(c2cn(-c3cccc(-c4nc(C(N)=O)c5ccccc5n4)c3)cn2)C1=O (racemic) [Example 19, (R,S)-2-(3-(4-(3-Hydroxy-1-methyl-2-oxopyrrolidin-3-yl)-1H-imidazol-1-yl)phenyl)quinazoline-4-carboxamide] | < 100 nM | > 501 nM
27 | CN1CC[C@@](O)(c2cc(-c3cccc(-c4cc5[nH]cnc5c(C(N)=O)n4)c3)no2)C1=O [Example 97, (R)-6-(3-(5-(3-Hydroxy-1-methyl-2-oxopyrrolidin-3-yl)isoxazol-3-yl)phenyl)-1H-imidazo[4,5-c]pyridine-4-carboxamide] | < 100 nM | 100 to 500 nM
28 | CN1CC[C@@](O)(c2cc(-c3cccc(-c4ccc5cncn5c4)c3)no2)C1=O [Example 51, (R)-3-Hydroxy-3-(3-(3-(imidazo[1,5-a]pyridin-6-yl)phenyl)isoxazol-5-yl)-1-methylpyrrolidin-2-one] | 100 to 500 nM | > 501 nM
29 | [2H]C1([2H])N(C)C(=O)[C@](O)(c2cc(-c3cccc(-c4cc(C5CC5)c(N)c(C(N)=O)n4)c3)no2)C1([2H])[2H] [Example 177, (R)-3-Amino-4-cyclopropyl-6-(3-(5-(3-hydroxy-1-methyl-2-oxopyrrolidin-3-yl-4,4,5,5-d4)isoxazol-3-yl)phenyl)picolinamide] | < 100 nM | < 100 nM

Reference: patent US20250282785A1, “PYRROLIDINONE DERIVATIVES AS INHIBITORS OF NF KAPPA B INDUCING KINASE” (priority 2022, published 2025)
